Laboratory results as given in patent publication US9651864B2, “Negative resist composition, method for producing relief pattern using the same, and electronic component using the same” (DAI NIPPON PRINTING CO., LTD., priority 2010, dated 2017).

Key:
Type in all cases: physicochemical
[1] = Glass transition temperature (Tg) by differential thermal analyzer DSC-60; details: second heating to 200° C. at 10° C./min; deemed 200° C. or more when no inflection point until 200° C.
Description: Glass transition temperature (Tg): an intersection point of two tangents to smooth curving lines before and after the inflection temperature point of a DTA curve, the DTA curve being obtained when a material for forming a pattern of about 4 mg was heated to 200° C. at a rate of 10° C./min, cooled to room temperature and then heated to 200° C. at a rate of 10° C./min again, with a differential thermal analyzer (DSC-60 manufactured by Shimadzu Corporation).
Tg was deemed as 200° C. or more when no inflection point was found on the DTA curve until 200° C., which point corresponds to glass transition temperature.

[2] = Evaluation of solvent solubility of phenolic compound in typical resist solvents; set-up: key to Solubility in (D)-2: ⊚: The material for forming a pattern was dissolved at a concentration of 5 wt % at 23° C.; ◯: The material for forming a pattern was dissolved at a concentration of 1 wt % at 23° C.; X: The material for forming a pattern was insoluble; details: for Solubility in (D)-1: (D)-1: Propylene glycol monomethylether; for Solubility in (D)-1 / Solubility in (D)-2: 1 or 5 wt % at 23° C.; for Solubility in (D)-2: (D)-2: Propylene glycol monomethyl ether acetate
Description: The phenolic compounds (A-01 to A-15) obtained in Synthesis Examples 1 to 15 and the comparative phenolic compounds (CA-01 and CA-02) were added to the following typical resist solvents so as to have a concentration of 1 or 5 wt % at 23° C., followed by stirring:
(D)-1: Propylene glycol monomethylether
(D)-2: Propylene glycol monomethyl ether acetate
The thus-obtained mixtures were evaluated based on the following evaluation criterion.
? : The material for forming a pattern was dissolved at a concentration of 5 wt % at 23° C.,
∘: The material for forming a pattern was dissolved at a concentration of 1 wt % at 23° C.
x: The material for forming a pattern was insoluble.

[3] = as above; details: (D)-3: Cyclopentanone; 1 or 5 wt % at 23° C.

Glass Transition Temperature [1] | solubility in resist solvents (in words) ([2]; summary of Table 3) | solubility in propylene glycol monomethyl ether [2] [%] | SMILES | Solubility in (D)-1 [2] | Solubility in (D)-2 [2] | Solubility in (D)-3 [3]
62 °C |  |  | OCc1cc(C2(c3cc(CO)c(O)c(CO)c3)c3ccccc3-c3ccccc32)cc(CO)c1O [Compound A-04] | ⊚ (The material for forming a pattern was dissolved at a concentration of 5 wt % at 23° C.) | ⊚ (The material for forming a pattern was dissolved at a concentration of 5 wt % at 23° C.) | ⊚ (The material for forming a pattern was dissolved at a concentration of 5 wt % at 23° C.)
135 °C |  |  | CC(C)(c1cccc(C(C)(C)c2cc(CO)c(O)c(CO)c2)c1)c1cc(CO)c(O)c(CO)c1 [Compound A-05] | ⊚ (The material for forming a pattern was dissolved at a concentration of 5 wt % at 23° C.) | ◯ (The material for forming a pattern was dissolved at a concentration of 1 wt % at 23° C.) | ⊚ (The material for forming a pattern was dissolved at a concentration of 5 wt % at 23° C.)
200 °C or |  |  | OCc1cc(C(c2cc(CO)c(O)c(C3CCCCC3)c2)C(c2cc(CO)c(O)c(C3CCCCC3)c2)c2cc(CO)c(O)c(C3CCCCC3)c2)cc(C2CCCCC2)c1O [Compound A-09] | ⊚ (The material for forming a pattern was dissolved at a concentration of 5 wt % at 23° C.) | ⊚ (The material for forming a pattern was dissolved at a concentration of 5 wt % at 23° C.) | ⊚ (The material for forming a pattern was dissolved at a concentration of 5 wt % at 23° C.)
200 °C or |  |  | COCc1cc(C(c2cc(C)c(O)c(COC)c2)C(c2cc(C)c(O)c(COC)c2)c2cc(C)c(O)c(COC)c2)cc(C)c1O [Compound A-12] | ⊚ (The material for forming a pattern was dissolved at a concentration of 5 wt % at 23° C.) | ⊚ (The material for forming a pattern was dissolved at a concentration of 5 wt % at 23° C.) | ⊚ (The material for forming a pattern was dissolved at a concentration of 5 wt % at 23° C.)
200 °C or |  |  | Cc1cc(C2(c3cc(C)c(O)c(CO)c3)CCC(C(C)(C)C3CCC(c4cc(C)c(O)c(CO)c4)(c4cc(C)c(O)c(CO)c4)CC3)CC2)cc(CO)c1O [Compound A-13] | ⊚ (The material for forming a pattern was dissolved at a concentration of 5 wt % at 23° C.) | ⊚ (The material for forming a pattern was dissolved at a concentration of 5 wt % at 23° C.) | ⊚ (The material for forming a pattern was dissolved at a concentration of 5 wt % at 23° C.)

Second part, the compound before the results:

SMILES | Glass Transition Temperature [1] | solubility in resist solvents (in words) ([2]; summary of Table 3) | solubility in propylene glycol monomethyl ether [2] [%] | Solubility in (D)-1 [2] | Solubility in (D)-2 [2] | Solubility in (D)-3 [3]
CC(C)(c1cc(CO)c(O)c(CO)c1)c1cc(CO)c(O)c(CO)c1 [CA-01, 2,2-bis(4-hydroxy-3,5-dihydroxymethylphenyl)propane, reference compound] | 27 °C | dissolve in only specific solvents |  | ◯ (The material for forming a pattern was dissolved at a concentration of 1 wt % at 23° C.) | X | ◯ (The material for forming a pattern was dissolved at a concentration of 1 wt % at 23° C.)
CC(C)(C1CCC(c2cc(CO)c(O)c(CO)c2)(c2cc(CO)c(O)c(CO)c2)CC1)C1CCC(c2cc(CO)c(O)c(CO)c2)(c2cc(CO)c(O)c(CO)c2)CC1 [Compound A-01] | 63 °C |  | 2 | ◯ (The material for forming a pattern was dissolved at a concentration of 1 wt % at 23° C.) | ◯ (The material for forming a pattern was dissolved at a concentration of 1 wt % at 23° C.) | ⊚ (The material for forming a pattern was dissolved at a concentration of 5 wt % at 23° C.)
Cc1cc(C(c2cc(C)c(O)c(CO)c2)C(c2cc(C)c(O)c(CO)c2)c2cc(C)c(O)c(CO)c2)cc(CO)c1O [Compound A-02] | 200 °C or |  | 5 | ⊚ (The material for forming a pattern was dissolved at a concentration of 5 wt % at 23° C.) | ◯ (The material for forming a pattern was dissolved at a concentration of 1 wt % at 23° C.) | ⊚ (The material for forming a pattern was dissolved at a concentration of 5 wt % at 23° C.)
c1cc(C(c2ccc(OCC3CO3)cc2)C(c2ccc(OCC3CO3)cc2)c2ccc(OCC3CO3)cc2)ccc1OCC1CO1 (stereo not drawn) [TEP-G, reference compound] | 47 °C |  |  |  |  | 
